In data set [1] the test system is Bel-7402. Description: Antiproliferative activity against human Bel7402 cells assessed as reduction in cell viability preincubated for 5 hrs followed by compound washout and subsequent 3 mW/cm2 UVA irradiation for 20 mins measured 48 hrs post irradiation by CCK8 assay. Format: functional, cell-based. To be noted: Bel-7402, light or radiation study.
Data set [2] concerns MCF7. Description: Antiproliferative activity against human MCF7 cells assessed as reduction in cell viability preincubated for 5 hrs followed by compound washout and subsequent 3 mW/cm2 UVA irradiation measured 48 hrs post irradiation by CCK8 assay. It counts as functional, cell-based. To be noted: MCF7, light or radiation study.
For data set [3], the system named is A-375. The data set can be described thus: Antiproliferative activity against human A375 cells assessed as reduction in cell viability preincubated for 5 hrs followed by compound washout and subsequent 3 mW/cm2 UVA irradiation measured 48 hrs post irradiation by CCK8 assay. Format: functional, cell-based. To be noted: A-375, light or radiation study. A general note: Tetrazolium dyes change colour on reduction, which living cells bring about.

Data set [4] concerns H22. The data set can be described thus: Antiproliferative activity against mouse H22 cells assessed as reduction in cell viability preincubated for 5 hrs followed by compound washout and subsequent 2 mW/cm2 UVA irradiation measured 48 hrs post irradiation by CCK8 assay. It counts as functional, cell-based. To be noted: H22, light or radiation study.
The subject of data set [5] is Bel-7402. The data set can be described thus: Dark toxicity against human Bel7402 cells up to 500 nM incubated for 5 hrs followed by compound washout and measured after 48 hrs by CCK8 assay. The following applies: bel-7402, 5 h. Format: cell-based.
Data set [6] relates to MCF7. Description: Dark toxicity against human MCF7 cells up to 500 nM preincubated for 5 hrs followed by compound washout and measured after 48 hrs by CCK8 assay. To be noted: mcf7, 48 h. Format: cell-based.
Data set [7] concerns A-375. The data set can be described thus: Dark toxicity against human A375 cells up to 500 nM preincubated for 5 hrs followed by compound washout and measured after 48 hrs by CCK8 assay. Format: cell-based. The following applies: a-375, 48 h.
Data set [8] concerns H22. Description: Dark toxicity against mouse H22 cells up to 500 nM preincubated for 5 hrs followed by compound washout and measured after 48 hrs by CCK8 assay. It counts as cell-based. The following applies: h22, 48 h.
The test system of data set [9] is MCF7. The data set can be described thus: Induction of reactive oxygen species generation in human MCF7 cells up to 200 nM preincubated for 5 hrs followed by compound washout and subsequent 3 mW/cm2 UVA irradiation measured 10 mins post irradiation by DCFH-DA probe based fluorescence microscopic analysis. It counts as functional, cell-based.
In data set [10] the test system is H22. The data set can be described thus: Induction of immunogenic cell death in mouse H22 cells assessed as extracellular ATP level at 250 nM preincubated for 5 hrs followed by compound washout and subsequent 2 mW/cm2 UVA irradiation for 20 mins measured 2 hrs post irradiation by chemiluminescence-based assay. Format: functional.
For data set [11], the system named is H22. Description: Induction of immunogenic cell death in mouse H22 cells assessed as […] in extracellular ATP level at 250 nM incubated for 5 hrs followed by compound washout and subsequent 2 mW/cm2 UVA irradiation measured 5 hrs post irradiation by chemiluminescence-based assay. Format: functional.
The subject of data set [12] is H22. Description: Induction of immunogenic cell death in mouse H22 cells assessed as extracellular HMGB1 level at 120 to 250 nM preincubated for 5 hrs followed by compound washout and subsequent 2 mW/cm2 UVA irradiation measured 2 hrs post irradiation by ELISA. It counts as functional. On the technique in general: In an ELISA, binding on a coated surface is turned into a signal by an enzyme label.

For data set [13], the system named is H22. The data set can be described thus: Dark toxicity in mouse H22 cells assessed as increase in extracellular HMGB1 level at 120 to 250 nM incubated for 5 hrs by ELISA. To be noted: h22, 5 h, 0.25 µM. It counts as cell-based.
Data set [14] relates to H22. Description: Induction of immunogenic cell death in mouse H22 cells assessed as increase in intracellular calreticulin level at 60 to 250 nM preincubated for 5 hrs followed by compound washout and subsequent 2 mW/cm2 UVA irradiation measured 2 hrs post irradiation by Hoechst staining based fluorescence microscopic analysis. Format: functional.
Data set [15] relates to H22. Description: Antitumor activity against mouse H22 cells allografted in immunocompetent Balb/c mouse assessed as inhibition of tumour formation at 60 nM incubated with cells for 5 hrs prior to 20 mins 2 mW/cm2 UVA irradiation post compound washout followed by vaccination and measured over 10 days. It counts as functional, cell-based.
In data set [16] the test system is H22. Description: Antitumor activity against mouse H22 cells allografted in immunocompetent Balb/c mouse assessed as inhibition of tumour formation at 60 nM incubated with cells for 5 hrs prior to 20 mins 2 mW/cm2 UVA irradiation post compound washout followed by vaccination and measured over 20 days. Format: functional, cell-based.
In data set [17] the test system is H22. Description: Antitumor activity against mouse H22 cells allografted in immunocompetent Balb/c mouse assessed as inhibition of tumour formation at 250 nM incubated with cells for 5 hrs prior to 20 mins 2 mW/cm2 UVA irradiation post compound washout followed by vaccination and measured within 5 days. It counts as functional, cell-based.
The subject of data set [18] is H22. Description: Antitumor activity against mouse H22 cells allografted in immunocompetent Balb/c mouse assessed as decrease in tumour formation at challenge site at 250 nM incubated with cells for 5 hrs followed by compound washout before 2 mW/cm2 UVA irradiation for 20 mins and followed by vaccination and subsequent H22 cells addition 10 days post vaccination and measured on day 25. Format: functional, cell-based.

The test system of data set [19] is H22. The data set can be described thus: Antitumor activity against mouse H22 cells allografted in immunocompetent Balb/c mouse assessed as decrease in tumour formation at challenge site at 250 nM incubated with cells for 5 hrs followed by compound washout before 2 mW/cm2 UVA irradiation for 20 mins and followed by vaccination and subsequent H22 cells addition 10 days post vaccination and measured after 2 weeks. Format: functional, cell-based.

Data set [20] relates to H22. The data set can be described thus: Antitumor activity against mouse H22 cells allografted in immunocompetent Balb/c mouse assessed as decrease in tumour formation at challenge site at 250 nM incubated with cells for 5 hrs followed by compound washout before 2 mW/cm2 UVA irradiation for 20 mins and followed by vaccination and subsequent H22 cells addition 10 days post vaccination and measured after 2 months. It counts as functional, cell-based.

Data set [21] can be described thus: Toxicity in immunocompetent BALB/c mouse allografted with mouse H22 cells assessed as change in body weight at 250 nM incubated with cells for 5 hrs followed by compound washout before 2 mW/cm2 UVA irradiation for 20 mins and followed by vaccination and subsequent H22 cells addition 10 days post vaccination and measured over 30 days. The following applies: 0.25 µM.

Data set [22] relates to H22. The data set can be described thus: Antitumor activity against mouse H22 cells allografted in immunocompetent Balb/c mouse assessed as decrease in lump formation at vaccination site at 250 nM incubated with cells for 5 hrs prior to 20 mins 2 mW/cm2 UVA irradiation post compound washout followed by vaccination and measured over 30 days. It counts as functional, cell-based.

For data set [23], the system named is H22. The data set can be described thus: Induction of immunogenic cell death in mouse H22 cells assessed as increase in intracellular calreticulin level at 60 to 250 nM preincubated for 5 hrs followed by compound washout and subsequent 2 mW/cm2 UVA irradiation for 20 mins measured 2 hrs post irradiation by flow cytometric analysis. It counts as functional, cell-based. In general terms: In flow cytometry, cells or beads pass a laser one at a time.

Data set [24] concerns H22. Description: Dark toxicity in mouse H22 cells assessed as increase in intracellular calreticulin level at 60 to 250 nM measured after 5 hrs by flow cytometric analysis. It counts as cell-based. To be noted: h22, 5 h, 0.25 µM.
In data set [25] the test system is Bel-7402. Description: Cytotoxicity against human Bel7402 cells assessed as reduction in cell viability preincubated for 5 hrs followed by compound washout and measured after 48 hrs by CCK8 assay. Format: functional, cell-based.
Data set [26] deals with MCF7. Description: Cytotoxicity against human MCF7 cells assessed as reduction in cell viability preincubated for 5 hrs followed by compound washout and measured after 48 hrs by CCK8 assay. Format: functional, cell-based.
Data set [27] has as its system A-375. The data set can be described thus: Cytotoxicity against human A375 cells assessed as reduction in cell viability preincubated for 5 hrs followed by compound washout and measured after 48 hrs by CCK8 assay. Format: functional, cell-based.
Data set [28] is described as follows: Dark toxicity against mouse H22 cells assessed as reduction in cell viability preincubated for 5 hrs followed by compound washout and measured after 48 hrs by CCK8 assay. Format: cell-based.
The test system of data set [29] is H22. Description: Induction of immunogenic cell death in mouse H22 cells assessed as increase in extracellular ATP level at 2 uM measured after 5 hrs by chemiluminescence-based assay. It counts as functional.
The test system of data set [30] is H22. Description: Induction of immunogenic cell death in mouse H22 cells assessed as extracellular ATP level at 2 uM measured after 24 hrs by chemiluminescence-based assay. It counts as functional.
The test system of data set [31] is H22. Description: Induction of immunogenic cell death in mouse H22 cells assessed as increase in extracellular HMGB1 level at 2 uM incubated for 5 hrs by ELISA. It counts as functional, cell-based.
The test system of data set [32] is H22. The data set can be described thus: Induction of immunogenic cell death in mouse H22 cells assessed as increase in calreticulin level in cell surface at 2 uM incubated for 5 hrs by Hoechst staining based fluorescence microscopic analysis. Format: functional.
Data set [33] has as its system H22. The data set can be described thus: Antitumor activity against mouse H22 cells allografted in immunocompetent Balb/c mouse assessed as inhibition of tumour formation at 2 uM incubated with cells for 5 hrs prior to 20 mins 2 mW/cm2 UVA irradiation post compound washout followed by vaccination and measured within 5 days. It counts as functional, cell-based.
Data set [34] has as its system H22. The data set can be described thus: Antitumor activity against mouse H22 cells allografted in immunocompetent Balb/c mouse assessed as decrease in lump formation at challenge site at 2 uM incubated with cells for 5 hrs followed by compound washout prior to vaccination and subsequent H22 cells addition 10 days post vaccination and measured over 30 days. Format: functional, cell-based.

The test system of data set [35] is H22. The data set can be described thus: Antitumor activity against mouse H22 cells allografted in immunocompetent Balb/c mouse assessed as decrease in lump formation in vaccination site at 2 uM incubated with cells for 5 hrs prior to 20 mins 2 mW/cm2 UVA irradiation post compound washout followed by vaccination and measured over 30 days. It counts as functional, cell-based.

The test system of data set [36] is H22. The data set can be described thus: Induction of immunogenic cell death in mouse H22 cells assessed as increase in intracellular calreticulin level at 2 uM measured after 5 hrs by flow cytometric analysis. It counts as functional, cell-based.

Activity calls are given as the source filed them. No cut-off for these calls is given here.

As for `Cc1cn([C@H]2C[C@H](n3cc(CNC(=O)CCCCCOc4ccc5c(c4)-c4nc6cc7ccccc7cc6nc4[C@H]4C(C)(C)CCC[C@]54C)nn3)[C@@H](CO)O2)c(=O)[nH]c1=O`, the half-maximal inhibitory concentration (IC50) (as a rule, the concentration needed to halve the response being measured) in the data set with Bel-7402 [1] was found to be 26.6 nM; in the data set with MCF7 [2] it was 23.5 nM; in the data set with A-375 [3], 25.3 nM; in the data set on H22 [4] it was 28.8 nM. The Activity result in the data set on Bel-7402 [5] was “Non-Toxic”; in the data set with MCF7 [6] it was “Non-Toxic”; in the data set on A-375 [7], “Non-Toxic”; in the data set with H22 [8], “Non-Toxic”; in the data set on H22 [10] it was 335 nM; in the data set with H22 [12] it was 3 ng/mL. Moreover, the Activity result (in the data set on H22 [13]; in data set [21]; in the data set on H22 [24]) was “Non-Toxic” each time. Also, the result with MCF7 [9], in the data set on H22 [11], in the data set with H22 [14], with H22 [22] and in the data set on H22 [23] was Active. Besides, the inhibition entry in the data set with H22 [15] and with H22 [16] was “inactive” in each case. The inhibition result in the data set on H22 [17], in the data set with H22 [18], with H22 [19] and in the data set on H22 [20] was “Active” throughout.
With `C=CC1=C(C)c2cc3[nH]c(cc4nc(cc5[nH]c(cc1n2)c(C)c5CCC(=O)O)C(CCC(=O)O)=C4C)c(C)c3C=C` [PROTOPORPHYRIN], the concentration for half-maximal inhibition (IC50) with Bel-7402 [1] is 310 nM.
Same read-out and setting: under `Cc1cn([C@H]2C[C@H](n3cc(CNC(=O)CCCCCOc4ccc5c(c4)-c4nc6ccccc6nc4[C@@H]4C(C)(C)CCC[C@]54C)nn3)[C@@H](CO)O2)c(=O)[nH]c1=O` stands 251 nM.
Take `Cc1cn([C@H]2C[C@H](n3cc(CNC(=O)CCCCCOc4ccc5c(c4)-c4nc6cc7ccccc7cc6nc4[C@@H]4C(C)(C)CCC[C@]54C)nn3)[C@@H](CO)O2)c(=O)[nH]c1=O`: the IC50 worked out at 44.3 nM in the data set on Bel-7402 [1], 49.6 nM in the data set on MCF7 [2], 44 nM in the data set with A-375 [3] and 32 nM in the data set on H22 [4]. The Activity result in the data set on Bel-7402 [5], with MCF7 [6], with A-375 [7] and in the data set on H22 [8] was “Non-Toxic” each time.
In the case of `O=C1c2c(O)ccc(O)c2C(=O)c2c(NCCNCCO)ccc(NCCNCCO)c21` [MITOXANTRONE], the IC50 in the data set on Bel-7402 [25] was determined as 117 nM; in the data set with MCF7 [26], 380 nM; in the data set on A-375 [27] it was 112 nM. Besides, the IC90 (in general, the concentration at which the effect reaches the 90% level) in the data set with Bel-7402 [25] turned out to be 1300 nM. In addition, the IC50 at 5 h in [28] came to 187 nM. For the same compound, the result with H22 [29] and in the data set on H22 [31] was inactive. The Activity with H22 [30] was 9 nM. The result with H22 [32], in the data set on H22 [35] and in the data set on H22 [36] was Active. Further, the inhibition entry in the data set on H22 [33] is “Active”. Moreover, the inhibition entry in the data set with H22 [34] was “inactive”.
